# Data: patent publication US20230050398A1, “METHODS FOR INCREASING SHELF-LIFE OF OPHTHALMIC PHARMACEUTICAL COMPOSITIONS” (Harrow IP, LLC, priority 2021, published 2023)
# Tests used:
# Type in all cases: physicochemical
# [1] = Stability of ophthalmic pharmaceutical composition of Example 1: amount of active ingredient by UHPLC; conditions: Example 1 composition; for Pass/Fail: 25° C., acceptance 90-110% of label claim (bromfenac, moxifloxacin), 90-115% (prednisolone acetate); for % Label Claim / Amount Found: stored at 25° C.
# Method: The stability of an ophthalmic pharmaceutical composition made by the method of the present disclosure was studied and confirmed by the Compounder's International Analytical Laboratory. The data collected included the concentration of the active ingredients in the composition, the pH, and the appearance, color, and odor of the composition. The amount of active ingredient in the ophthalmic pharmaceutical composition was determined by ultra high performance liquid chromatography (UHPLC). The composition was stored at 25° C. The composition comprised the active ingredients bromfenac, moxifloxacin, and prednisolone acetate. The composition was considered stable if it contained 90-110% of the label claim of bromfenac and moxifloxacin and 90-115% of the label claim of prednisolone acetate.
# A sample of the composition was provided on Jul. 31, 2020. […] 21, 2020.
# [2] = Stability of ophthalmic pharmaceutical composition of Example 2: amount of active ingredient by UHPLC; conditions: Example 2 composition; for Pass/Fail: 25° C., acceptance 90-110% of label claim (bromfenac, moxifloxacin), 90-115% (prednisolone acetate); for % Label Claim / Amount Found: stored at 25° C.
# Method: The stability of an ophthalmic pharmaceutical composition made by the method of the present disclosure was studied and confirmed by the Compounder's International Analytical Laboratory. The data collected included the concentration of the active ingredients in the composition, the pH, and the appearance, color, and odor of the composition. The amount of active ingredient in the ophthalmic pharmaceutical composition was determined by ultra high performance liquid chromatography (UHPLC). The composition was stored at 25° C. The composition comprised the active ingredients bromfenac, moxifloxacin, and prednisolone acetate. The composition was considered stable if it contained 90-110% of the label claim of bromfenac and moxifloxacin and 90-115% of the label claim of prednisolone acetate. pH was determined according to USP 791, incorporated by reference herein. Additionally, the container enclosure was tested at baseline according to USP 1207 and 381, incorporated by reference herein. No blue dye was observed via UV-Vis spectrophotometry.
# A sample of the composition was provided on May 28, 2021. […] 7, 2021.
# [3] = Stability of comparator composition (Example 3): amount of active ingredient by UHPLC; conditions: for Pass/Fail: 25° C., acceptance 90-110% of label claim (bromfenac, moxifloxacin), 90-115% (prednisolone acetate); for % Label Claim (Potency) / Amount Found: stored at 25° C.
# Method: The data collected included the concentration of the active ingredients in the composition. The amount of active ingredient in the composition was determined by ultra high performance liquid chromatography (UHPLC). The comparator composition was stored at 25° C. The composition comprised the active ingredients bromfenac, moxifloxacin, and prednisolone acetate.
# A sample of the composition was provided on Nov.
structure (smiles),measurement,setting,value
"Nc1c(CC(=O)O)cccc1C(=O)c1ccc(Br)cc1 [Bromfenac, bromfenac]",Pass/Fail,[1]; after 90 days,Pass
same,Pass/Fail,[1]; after 120 days,Pass
same,Pass/Fail,[1]; after 180 days,Pass
same,Pass/Fail,[1]; after 210 days,Pass
same,Pass/Fail,[1]; after 270 days,Pass
same,Pass/Fail,[1]; baseline,Pass
same,% Label Claim,[1]; after 90 days,98.3%
same,Amount Found,[1]; after 90 days,0.07373%
same,% Label Claim,[1]; after 120 days,100.8%
same,Amount Found,[1]; after 120 days,0.07559%
same,% Label Claim,[1]; after 180 days,105.6%
same,Amount Found,[1]; after 180 days,0.07917%
same,% Label Claim,[1]; after 210 days,101.6%
same,Amount Found,[1]; after 210 days,0.0762%
same,% Label Claim,[1]; after 270 days,97.5%
same,Amount Found,[1]; after 270 days,0.07312%
same,% Label Claim,[1]; baseline,107.0%
same,Amount Found,[1]; baseline,0.08023%
same,Pass/Fail,[2]; after 90 days,Pass
same,Pass/Fail,[2]; after 180 days,Pass
same,Pass/Fail,[2]; after 270 days,Pass
same,Pass/Fail,[2]; after 300 days,Pass
same,Pass/Fail,[2]; after 365 days,Pass
same,Pass/Fail,[2]; baseline,Pass
same,% Label Claim,[2]; after 90 days,101.9%
same,Amount Found,[2]; after 90 days,0.07646%
same,% Label Claim,[2]; after 180 days,98.6%
same,Amount Found,[2]; after 180 days,0.07398%
same,% Label Claim,[2]; after 270 days,92.5%
same,Amount Found,[2]; after 270 days,0.06939%
same,% Label Claim,[2]; after 300 days,95.5%
same,Amount Found,[2]; after 300 days,0.0716%
same,% Label Claim,[2]; after 365 days,91.1%
same,Amount Found,[2]; after 365 days,0.06834%
same,% Label Claim,[2]; baseline,100.0%
same,Amount Found,[2]; baseline,0.07499%
same,Pass/Fail,[3]; after 30 days,Pass
same,Pass/Fail,[3]; after 60 days,Pass
same,Pass/Fail,[3]; after 90 days,Fail
same,Pass/Fail,[3]; after 120 days,Fail
same,Pass/Fail,[3]; after 150 days,Fail
same,Pass/Fail,[3]; after 180 days,Fail
same,Pass/Fail,[3]; baseline,Pass
same,% Label Claim (Potency),[3]; after 30 days,94.9%
same,Amount Found,[3]; after 30 days,0.071%
same,% Label Claim (Potency),[3]; after 60 days,92.2%
same,Amount Found,[3]; after 60 days,0.0692%
same,% Label Claim (Potency),[3]; after 90 days,87%
same,Amount Found,[3]; after 90 days,0.0660%
same,% Label Claim (Potency),[3]; after 120 days,82%
same,Amount Found,[3]; after 120 days,0.0618%
same,% Label Claim (Potency),[3]; after 150 days,84%
same,Amount Found,[3]; after 150 days,0.0627%
same,% Label Claim (Potency),[3]; after 180 days,78%
same,Amount Found,[3]; after 180 days,0.0584%
same,% Label Claim (Potency),[3]; baseline,99.6%
same,Amount Found,[3]; baseline,0.0747%
"CC(=O)OCC(=O)[C@@]1(O)CC[C@H]2[C@@H]3CCC4=CC(=O)C=C[C@]4(C)[C@H]3[C@@H](O)C[C@@]21C [Prednisolone acetate, prednisolone acetate]",Pass/Fail,[1]; after 90 days,Pass
same,Pass/Fail,[1]; after 120 days,Pass
same,Pass/Fail,[1]; after 180 days,Pass
same,Pass/Fail,[1]; after 210 days,Pass
same,Pass/Fail,[1]; after 270 days,Pass
same,Pass/Fail,[1]; baseline,Pass
same,% Label Claim,[1]; after 90 days,99.2%
same,Amount Found,[1]; after 90 days,0.9915%
same,% Label Claim,[1]; after 120 days,103.5%
same,Amount Found,[1]; after 120 days,1.035%
same,% Label Claim,[1]; after 180 days,105.6%
same,Amount Found,[1]; after 180 days,1.056%
same,% Label Claim,[1]; after 210 days,106.5%
same,Amount Found,[1]; after 210 days,1.065%
same,% Label Claim,[1]; after 270 days,103.6%
same,Amount Found,[1]; after 270 days,1.036%
same,% Label Claim,[1]; baseline,100.0%
same,Amount Found,[1]; baseline,1.000%
same,Pass/Fail,[2]; after 90 days,Pass
same,Pass/Fail,[2]; after 180 days,Pass
same,Pass/Fail,[2]; after 270 days,Pass
same,Pass/Fail,[2]; after 300 days,Pass
same,Pass/Fail,[2]; after 365 days,Pass
same,Pass/Fail,[2]; baseline,Pass
same,% Label Claim,[2]; after 90 days,98.0%
same,Amount Found,[2]; after 90 days,0.9805%
same,% Label Claim,[2]; after 180 days,98.8%
same,Amount Found,[2]; after 180 days,0.9883%
same,% Label Claim,[2]; after 270 days,97.4%
same,Amount Found,[2]; after 270 days,0.9743%
same,% Label Claim,[2]; after 300 days,99.5%
same,Amount Found,[2]; after 300 days,0.9954%
same,% Label Claim,[2]; after 365 days,99.6%
same,Amount Found,[2]; after 365 days,0.9960%
same,% Label Claim,[2]; baseline,102.4%
same,Amount Found,[2]; baseline,1.024%
same,Pass/Fail,[3]; after 30 days,Pass
same,Pass/Fail,[3]; after 60 days,Pass
same,Pass/Fail,[3]; after 90 days,Pass
same,Pass/Fail,[3]; after 120 days,Pass
same,Pass/Fail,[3]; after 150 days,Pass
same,Pass/Fail,[3]; after 180 days,Pass
same,Pass/Fail,[3]; baseline,Pass
same,% Label Claim (Potency),[3]; after 30 days,97.8%
same,Amount Found,[3]; after 30 days,0.978%
same,% Label Claim (Potency),[3]; after 60 days,90.0%
same,Amount Found,[3]; after 60 days,0.9001%
same,% Label Claim (Potency),[3]; after 90 days,99%
same,Amount Found,[3]; after 90 days,0.9885%
same,% Label Claim (Potency),[3]; after 120 days,95%
same,Amount Found,[3]; after 120 days,0.9505%
same,% Label Claim (Potency),[3]; after 150 days,93%
same,Amount Found,[3]; after 150 days,0.926%
same,% Label Claim (Potency),[3]; after 180 days,91%
same,Amount Found,[3]; after 180 days,0.907%
same,% Label Claim (Potency),[3]; baseline,98.4%
same,Amount Found,[3]; baseline,0.984%
